From patent US12157730B2, “Heteroaryl derivative, method for producing same, and pharmaceutical composition comprising same as effective component” (VORONOI INC., priority 2019, dated 2024) come the findings set out here.

The structures appear in SMILES notation.

The target of the test is T1, Ba/F3 cell EGFR Exon20 ins NPH (Homo sapiens, UniProt P00533, INS773NPH).
T1 construct: expressed in transfected cells; host or cells: Ba/F3
Kind of test: Ba/F3 cell proliferation suppression, EGFR Exon20 ins NPH. The test is classed as cell-based. The following applies: GI50 class; Ba/F3 cell line with NPH inserted at Exon20 of EGFR; 72 hours. The essentials: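 Cells were seeded 24 h before dosing and then treated for 72 hours with compound at final concentrations of 0.3 nM to 50 um. Live cells were measured by CellTiter-Glo luminescence, and GI50 values were derived from growth ratio relative to control across three repeats.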
Consider `C=CC(=O)Nc1cc(Nc2cc(N3OCC[C@H]3Cc3ccccc3)ncn2)c(OC)cc1N1CCN(CC2CC2)CC1` [compound 967, N-(5-((6-((R)-3-benzylisoxazolidine-2-yl)pyrimidine-4-yl)amino)-2-(4-(cyclopropylmethyl)piperazine-1-yl)-4-methoxyphenyl) acrylamide], for which the “Ba/F3 (NPH) Activity” value is recorded as “C (500 nM ≤ GI50 < 5000 nM)”.
The same measure for `C=CC(=O)Nc1cc(Nc2cc(N3OCC[C@@H]3c3cc(F)cc(Cl)c3F)ncn2)c(OC)cc1N1CCN(C2CC2)CC1` [compound 939, N-(5-((6-((R)-3-(3-chloro-2,5-difluorophenyl)isoxazolidine-2-yl)pyrimidine-4-yl)amino)-2-(4-cyclopropylpiperazine-1-yl)-4-methoxyphenyl) acrylamide]: “B (50 nM ≤ GI50 < 500 nM)”; for `C=CC(=O)Nc1cc(Nc2cc(N3OCC[C@@H]3c3cccc(C#N)c3)ncn2)c(OC)cc1N1CCC(N2CCC(F)(F)CC2)CC1` [compound 433, N-(5-((6-((R)-3-(3-cyanophenyl)isoxazolidine-2-yl)pyrimidine-4-yl)amino)-2-(4,4-difluoro-[1,4'-bipiperidine]-1'-yl)-4-methoxyphenyl) acrylamide]: “A (GI50 < 50 nM)”.
As to `C=CC(=O)Nc1cc(Nc2cc(N3OCC[C@@H]3c3cccc(Cl)c3Cl)ncn2)c(OC)cc1N1CCC(N2CCOCC2)CC1` [compound 521, N-(5-((6-((R)-3-(2,3-dichlorophenyl)isoxazolidine-2-yl)pyrimidine-4-yl)amino)-4-methoxy-2-(4-morpholinopiperidine-1-yl)phenyl)acrylamide], the “Ba/F3 (NPH) Activity” value is reported as “A (GI50 < 50 nM)”.
For the compound `C=CC(=O)Nc1cc(Nc2cc(N3OCC[C@@H]3c3ccc(F)cc3F)ncn2)c(OC)cc1N1CCC(N2C[C@H]3C[C@@H]2CN3C)CC1` [compound 473, N-(5-((6-((R)-3-(2,4-difluorophenyl)isoxazolidine-2-yl)pyrimidine-4-yl)amino)-4-methoxy-2-(4-((1R,4R)-5-methyl-2,5-diazabicyclo[2.2.1]heptane-2-yl)piperidine-1-yl)phenyl)acrylamide], the “Ba/F3 (NPH) Activity” value is “A (GI50 < 50 nM)”.
As for `C=CC(=O)Nc1cc(Nc2cc(N3OCC[C@@H]3c3cccc4ccccc34)ncn2)c(OC)cc1N1CCN(C2COC2)CC1` [compound 439, N-(4-methoxy-5-((6-((R)-3-(naphthalene-1-yl)isoxazolidine-2-yl)pyrimidine-4-yl)amino)-2-(4-(oxetane-3-yl)piperazine-1-yl)phenyl) acrylamide], the “Ba/F3 (NPH) Activity” value is “A (GI50 < 50 nM)”.
In the case of `C=CC(=O)Nc1cc(Nc2cc(N3OCC[C@@]3(C)c3ccccc3)ncn2)c(OC)cc1N1CCC(N2C[C@H]3C[C@@H]2CO3)CC1` [Example 269, N-(2-(4-((1R,4R)-2-oxa-5-azabicyclo[2.2.1]heptane-5-yl)piperidine-1-yl)-4-methoxy-5-((6-((S)-3-methyl-3-phenylisoxazolidine-2-yl)pyrimidine-4-yl)amino)phenyl) acrylamide], the “Ba/F3 (NPH) Activity” value is listed as “C (500 nM ≤ GI50 < 5000 nM)”.
`C=CC(=O)Nc1cc(Nc2cc(N3OCC[C@@H]3c3cccc(C#N)c3)ncn2)c(OC)cc1N1CCN(C)CC1` [compound 393, N-(5-((6-((R)-3-(3-cyanophenyl)isoxazolidine-2-yl)pyrimidine-4-yl)amino)-4-methoxy-2-(4-methylpiperazine-1-yl)phenyl)acrylamide]: the “Ba/F3 (NPH) Activity” value was “B (50 nM ≤ GI50 < 500 nM)”.
Consider `C=CC(=O)Nc1cc(Nc2cc(N3OCC[C@@H]3c3ccc(Cl)cc3)ncn2)c(OC)cc1N1CCC(N2C[C@@H](C)O[C@@H](C)C2)CC1` [compound 868, N-(5-((6-((R)-3-(4-chlorophenyl)isoxazolidine-2-yl)pyrimidine-4-yl)amino)-2-(4-((2S,6R)-2,6-dimethylmorpholino)piperidine-1-yl)-4-methoxyphenyl) acrylamide], for which the “Ba/F3 (NPH) Activity” value is on record as “A (GI50 < 50 nM)”.
Next, `C=CC(=O)Nc1cc(Nc2cc(N3OCC[C@@H]3Cc3cc(F)cc(F)c3)ncn2)c(OC)cc1N1CCC(N2CCN(C3CC3)CC2)CC1` [compound 1033, N-(2-(4-(4-cyclopropylpiperazine-1-yl)piperidine-1-yl)-5-((6-((S)-3-(3,5-difluorobenzyl)isoxazolidine-2-yl)pyrimidine-4-yl)amino)-4-methoxyphenyl) acrylamide]: “A (GI50 < 50 nM)”; `C=CC(=O)Nc1cc(Nc2cc(N3OCC[C@@H]3c3cc(F)cc(F)c3)ncn2)c(OC)cc1N1CCC(N2C[C@H]3CC[C@@H](C2)O3)CC1` [compound 759, N-(2-(4-((1R,5S)-8-oxa-3-azabicyclo [3.2.1]octan-3-yl)piperidine-1-yl)-5-((6-((R)-3-(3,5-difluorophenyl)isoxazolidine-2-yl)pyrimidine-4-yl)amino)-4-methoxyphenyl) acrylamide]: “B (50 nM ≤ GI50 < 500 nM)”.
For the compound `C=CC(=O)Nc1cc(Nc2cc(N3OCC[C@@H]3c3cc(F)ccc3F)ncn2)c(OC)cc1N(C)CCOC` [compound 327, N-(5-((6-((R)-3-(2,5-difluorophenyl)isoxazolidine-2-yl)pyrimidine-4-yl)amino)-4-methoxy-2-((2-methoxyethyl) (methyl)amino)phenyl)acrylamide], the “Ba/F3 (NPH) Activity” value was “B (50 nM ≤ GI50 < 500 nM)”.
`C=CC(=O)Nc1cc(Nc2cc(N3OCC[C@@H]3c3cccc(Cl)c3Cl)ncn2)c(OC)cc1N1CCN(C2CCN(C)CC2)CC1` [compound 562, N-(5-((6-((R)-3-(2,3-dichlorophenyl)isoxazolidine-2-yl)pyrimidine-4-yl)amino)-4-methoxy-2-(4-(1-methylpiperidine-4-yl)piperazine-1-yl)phenyl) acrylamide]: the “Ba/F3 (NPH) Activity” value is on record as “B (50 nM ≤ GI50 < 500 nM)”.
In the case of `C=CC(=O)Nc1cc(Nc2cc(N3OCC[C@@H]3c3ccc(F)c(Cl)c3)ncn2)c(OC)cc1N1CCC(N2CCN(C3CC3)CC2)CC1` [Example 59, N-(5-((6-((R)-3-(3-chloro-4-fluorophenyl)isoxazolidine-2-yl)pyrimidine-4-yl)amino)-2-(4-(4-cyclopropylpiperazine-1-yl)piperidine-1-yl)-4-methoxyphenyl) acrylamide;], the “Ba/F3 (NPH) Activity” value is on record as “A (GI50 < 50 nM)”.
As for `C=CC(=O)Nc1cc(Nc2cc(N3OCC[C@@H]3c3cc(F)ccc3F)ncn2)c(OC)cc1N1C[C@@H]2CCN(C)[C@@H]2C1` [compound 893, N-(5-((6-((R)-3-(2,5-difluorophenyl)isoxazolidine-2-yl)pyrimidine-4-yl)amino)-4-methoxy-2-((3aS,6aS)-1-methylhexahydropyrrolo [3,4-b]pyrrole-5(1H)-yl)phenyl) acrylamide], the “Ba/F3 (NPH) Activity” value is “A (GI50 < 50 nM)”.
Regarding `C=CC(=O)Nc1cc(Nc2cc(N3OCC[C@@H]3c3cccc(OC)c3)ncn2)c(OC)cc1N1CCC(N2C[C@H]3C[C@@H]2CO3)CC1` [compound 726, N-(2-(4-((1R,4R)-2-oxa-5-azabicyclo [2.2.1]heptane-5-yl)piperidine-1-yl)-4-methoxy-5-((6-((R)-3-(3-methoxyphenyl)isoxazolidine-2-yl)pyrimidine-4-yl)amino)phenyl)acrylamide], the “Ba/F3 (NPH) Activity” value is reported as “A (GI50 < 50 nM)”.
`C=CC(=O)Nc1cc(Nc2cc(N3OCC[C@@H]3Cc3cccc(F)c3)ncn2)c(OC)cc1N(C)CCN(C)C` [compound 992, N-(2-((2-(dimethylamino)ethyl) (methyl)amino)-5-((6-((S)-3-(3-fluorobenzyl)isoxazolidine-2-yl)pyrimidine-4-yl)amino)-4-methoxyphenyl) acrylamide]: the “Ba/F3 (NPH) Activity” value was “A (GI50 < 50 nM)”.
Take `C=CC(=O)Nc1cc(Nc2cc(N3OCC[C@@H]3c3ccc(F)cc3)ncn2)c(OC)cc1N1CCC(N2CC[C@@H](N(C)C)C2)CC1` [compound 810, N-(2-(4-((R)-3-(dimethylamino)pyrolidine-1-yl)piperidine-1-yl)-5-((6-((R)-3-(4-fluorophenyl)isoxazolidine-2-yl)pyrimidine-4-yl)amino)-4-methoxyphenyl) acrylamide]: the “Ba/F3 (NPH) Activity” value is “A (GI50 < 50 nM)”.
As for `COc1cc(OCCC(C)(C)OC)c(NC(=O)/C=C/CN(C)C)cc1Nc1cc(N2OCC[C@@H]2c2cc(F)cc(F)c2)ncn1` [compound 496, N-(5-((6-((R)-3-(3,5-difluorophenyl)isoxazolidine-2-yl)pyrimidine-4-yl)amino)-4-methoxy-2-(3-methoxy-3-methylbutoxy)phenyl)-(E)-4-(dimethylamino) but-2-enamide], the “Ba/F3 (NPH) Activity” value is given as “C (500 nM ≤ GI50 < 5000 nM)”.
In the case of `C=CC(=O)Nc1cc(Nc2cc(N3OCC[C@@H]3c3cccc(Cl)c3Cl)ncn2)c(OC)cc1N1CCC(N2CCN(C3CCCC3)CC2)CC1` [Example 206, N-(2-(4-(4-cyclopentylpiperazine-1-yl)piperidine-1-yl)-5-((6-((R)-3-(2,3-dichlorophenyl)isoxazolidine-2-yl)pyrimidine-4-yl)amino)-4-methoxyphenyl) acrylamide], the “Ba/F3 (NPH) Activity” value is listed as “B (50 nM ≤ GI50 < 500 nM)”.
On to `C=CC(=O)Nc1cc(Nc2cc(N3OCC[C@@H]3Cc3cccc(F)c3)ncn2)c(OC)cc1N1CCC(N2C[C@H]3CC[C@@H](C2)N3C2CC2)CC1` [compound 995, N-(2-(4-((1R,5S)-8-cyclopropyl-3,8-diazabicyclo [3.2.1]octan-3-yl)piperidine-1-yl)-5-((6-((S)-3-(3-fluorobenzyl)isoxazolidine-2-yl)pyrimidine-4-yl)amino)-4-methoxyphenyl) acrylamide], for which the “Ba/F3 (NPH) Activity” value is recorded as “A (GI50 < 50 nM)”.
In the case of `C=CC(=O)Nc1cc(Nc2cc(N3OCC[C@@H]3c3cccc(F)c3Cl)ncn2)c(OC)cc1N1CCN(CC)CC1` [compound 559, N-(5-((6-((R)-3-(2-chloro-3-fluorophenyl)isoxazolidine-2-yl)pyrimidine-4-yl)amino)-2-(4-ethylpiperazine-1-yl)-4-methoxyphenyl) acrylamide], the “Ba/F3 (NPH) Activity” value is recorded as “A (GI50 < 50 nM)”.
